By inhibition is commonly meant the drop in the measured response relative to a control, in per cent.

Where a name gives a salt, the structure may show the parent alone.

The target in this assay is USP7 (Homo sapiens, UniProt Q93009). The experiment in a line: biochemical. Details: Ub-AMC hydrolysis by recombinant USP7 (20 nM), 30 min pre-incubation, fluorescence read-out. Conditions: read-out: % Inhibition at 50 μM.
USP7, sequence (Q93009 whole entry): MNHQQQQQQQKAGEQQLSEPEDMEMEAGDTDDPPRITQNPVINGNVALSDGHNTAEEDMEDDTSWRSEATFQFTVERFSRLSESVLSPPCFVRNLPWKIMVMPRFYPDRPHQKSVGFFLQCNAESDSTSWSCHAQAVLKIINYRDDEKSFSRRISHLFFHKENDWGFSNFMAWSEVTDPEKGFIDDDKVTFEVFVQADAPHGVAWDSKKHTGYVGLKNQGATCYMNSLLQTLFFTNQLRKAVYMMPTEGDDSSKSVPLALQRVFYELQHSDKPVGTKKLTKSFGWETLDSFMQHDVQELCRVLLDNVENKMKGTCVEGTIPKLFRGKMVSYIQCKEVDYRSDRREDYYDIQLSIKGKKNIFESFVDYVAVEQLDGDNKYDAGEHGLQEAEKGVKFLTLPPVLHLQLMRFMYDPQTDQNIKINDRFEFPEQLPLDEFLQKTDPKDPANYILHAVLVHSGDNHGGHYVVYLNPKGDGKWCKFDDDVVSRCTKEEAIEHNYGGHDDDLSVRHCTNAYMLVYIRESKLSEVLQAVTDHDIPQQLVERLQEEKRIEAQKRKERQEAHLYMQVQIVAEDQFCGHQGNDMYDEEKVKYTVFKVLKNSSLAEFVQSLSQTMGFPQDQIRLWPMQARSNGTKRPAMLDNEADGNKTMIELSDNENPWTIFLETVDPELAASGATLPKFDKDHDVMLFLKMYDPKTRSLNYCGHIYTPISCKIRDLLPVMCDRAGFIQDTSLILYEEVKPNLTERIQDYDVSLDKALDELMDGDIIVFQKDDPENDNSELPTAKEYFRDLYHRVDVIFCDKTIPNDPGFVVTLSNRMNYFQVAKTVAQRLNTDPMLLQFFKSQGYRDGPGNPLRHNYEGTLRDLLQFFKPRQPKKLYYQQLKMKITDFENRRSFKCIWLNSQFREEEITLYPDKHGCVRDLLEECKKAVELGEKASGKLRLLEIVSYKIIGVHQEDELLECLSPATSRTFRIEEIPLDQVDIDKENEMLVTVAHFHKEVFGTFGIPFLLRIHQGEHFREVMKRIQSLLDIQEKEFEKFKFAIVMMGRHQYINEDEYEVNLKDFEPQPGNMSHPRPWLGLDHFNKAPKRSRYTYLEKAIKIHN
On to `Cc1cnc(C(=O)NCCc2ccc(S(=O)(=O)NC(=O)NC3CCCCC3)cc2)cn1` [Glipizide], for which the inhibition at 50 µM is < 5%.

As for `Cc1cnc(NC(=O)C2=C(O)c3ccccc3S(=O)(=O)N2C)s1` [Meloxicam], the inhibition at 50 µM was < 5%.

Regarding `CN1[C@@H]2CC[C@H]1C[C@@H](OC(=O)C(CO)c1ccccc1)C2` (stereo partly drawn) [Atropine sulfate], the inhibition at 50 µM is < 5%.

With `CN(C(=O)CCCOc1ccc2[nH]c(=O)ccc2c1)C1CCCCC1` [Cilostamide], the inhibition at 50 µM was < 5%.

`CC1(C)CCC2(C(=O)O)C(O)CC3(C)C(=CCC4C5(C)CC(O)C(O)C(C)(CO)C5CCC43C)C2C1` (stereo not drawn) [Polygalacic acid]: the inhibition at 50 µM was < 5%.

Take `CN1CCN2c3ccccc3Cc3ccccc3C2C1` (stereo not drawn) [Mianserin hcl]: the inhibition at 50 µM was found to be 21.3%.

As to `COc1ncnc(NS(=O)(=O)c2ccc(N)cc2)c1OC` [Sulfadoxine], the inhibition at 50 µM is < 5%.

As to `CC[C@H](C)C(=O)O[C@H]1CCC=C2C=C[C@H](C)[C@H](CC[C@@H]3C[C@@H](O)CC(=O)O3)[C@H]21` [Mevastatin], the inhibition at 50 µM was < 5%.

For `C[C@]12CC[C@@H]3c4ccc(O)cc4C[C@@H](CCCCCCCCC[S+]([O-])CCCC(F)(F)C(F)(F)F)[C@H]3[C@@H]1CC[C@@H]2O` (stereo partly drawn) [Fulvestrant], the inhibition at 50 µM is < 5%.

As for `COc1cc(-c2ccc(=O)[nH]n2)ccc1OC(F)F` [Zardaverine], the inhibition at 50 µM was < 5%.

As for `O=C(C1CCCCC1)N1CC(=O)N2CCc3ccccc3C2C1` (stereo not drawn) [Praziquantel], the inhibition at 50 µM was < 5%.

As to `O=C1NC(=O)C(c2ccccc2)(c2ccccc2)N1` [Phenytoin], the inhibition at 50 µM is < 5%.

For `CCC(C)(C)c1ccc(CC(C)CN2C[C@@H](C)O[C@@H](C)C2)cc1` (stereo partly drawn) [Amorolfine], the inhibition at 50 µM is < 5%.

As to `CC(C)(Oc1ccc(CCNC(=O)c2ccc(Cl)cc2)cc1)C(=O)O` [Bezafibrate], the inhibition at 50 µM was < 5%.

With `CC(C)Nc1cccnc1N1CCN(C(=O)c2cc3cc(NS(C)(=O)=O)ccc3[nH]2)CC1` [Delavirdine mesylate], the inhibition at 50 µM was < 5%.

On to `CC/C(=C(/CC)c1ccc(O)cc1)c1ccc(O)cc1` [Diethylstilbestrol], for which the inhibition at 50 µM was 30.6%.

In the case of `Cc1ccc(N(CC2=NCCN2)c2cccc(O)c2)cc1` [Phentolamine HCl], the inhibition at 50 µM was < 5%.

Take `CO[C@H]1C[C@H](O[C@H]2[C@H](C)[C@@H](O[C@@H]3O[C@H](C)C[C@H](N(C)C)[C@H]3OC(C)=O)[C@@H](C)C[C@@]3(CO3)C(=O)[C@H](C)[C@@H](OC(C)=O)[C@@H](C)[C@@H](C)OC(=O)[C@@H]2C)O[C@@H](C)[C@@H]1OC(C)=O` [Troleandomycin]: the inhibition at 50 µM was < 5%.

Regarding `CC(C)n1c(/C=C/[C@H](O)C[C@H](O)CC(=O)O)c(-c2ccc(F)cc2)c2ccccc21` [Fluvastatin Na], the inhibition at 50 µM is < 5%.

As for `CCCN1C[C@H](CSC)C[C@@H]2c3cccc4[nH]cc(c34)C[C@H]21` [Pergolide mesylate], the inhibition at 50 µM is < 5%.

In the case of `CC(C)NCC(O)c1ccc(O)c(O)c1` (racemic) [Isoproterenol HCl (rac)], the inhibition at 50 µM is < 5%.

With `CCC(C)n1ncn(-c2ccc(N3CCN(c4ccc(OC[C@H]5CO[C@](Cn6cncn6)(c6ccc(Cl)cc6Cl)O5)cc4)CC3)cc2)c1=O` (mixture of isomers) [Itraconazole], the inhibition at 50 µM was < 5%.

In the case of `CCCNCC(O)COc1ccccc1C(=O)CCc1ccccc1` (stereo not drawn) [Propafenone], the inhibition at 50 µM is 78.2%.

As to `Cn1c(=O)c2c(ncn2CC2OCCO2)n(C)c1=O` [Doxofylline], the inhibition at 50 µM is < 5%.

As to `COc1ccc(CN(CCN(C)C)c2ccccn2)cc1` [Mepyramine maleate], the inhibition at 50 µM is < 5%.

Turning to `C[C@H]1O[C@@H](n2cc(F)c(=O)[nH]c2=O)[C@H](O)[C@@H]1O` [Doxifluridine], the inhibition at 50 µM is < 5%.

Regarding `CCn1cc(C(=O)O)c(=O)c2cc(F)c(N3CCNC(C)C3)c(F)c21` (stereo not drawn) [Lomefloxacin HCl], the inhibition at 50 µM was determined as 8.6%.

The values are drawn from article PMC5363571 (Oncotarget, 2016).
